Consider 4 molecules from ChEMBL document CHEMBL3045587, “Oxidation of di- and polyamines: in vitro effect of amino aldehydes on the vitality of Leishmania promastigotes” (Med Chem Res, 2010).

Holding throughout (type): functional, organism-based
Experiment [1] concerns Leishmania infantum. The experiment is described as follows: Antiparasitic activity against promastigotes of Leishmania infantum MHOM-TN-80-IPT1 assessed as decrease in parasite density at 1 to 5 mM measured at 4th and 7th day by microscopic analysis.
In experiment [2] the test system is Leishmania infantum. As to the kind of experiment: Antiparasitic activity against promastigotes of Leishmania infantum MHOM-TN-80-IPT1 assessed as decrease in promastigote vitality at 5 mM by counting chamber.
In experiment [3] the test system is Leishmania infantum. As to the kind of experiment: Increase in vitality of Leishmania infantum MHOM-TN-80-IPT1 promastigotes at 1 to 5 mM measured at 7th day by microscopic analysis.
The test system of experiment [4] is Leishmania infantum. The experiment is described as follows: Antiparasitic activity against promastigotes of Leishmania infantum MHOM-TN-80-IPT1 assessed as decrease in parasite vitality at 1 to 5 mM measured at 4th day by microscopic analysis.
Experiment [5] concerns Leishmania infantum. The experiment is described as follows: Antiparasitic activity against promastigotes of Leishmania infantum MHOM-TN-80-IPT1 assessed as decrease in parasite density at 1 to 5 mM measured at 4th day by microscopic analysis.
The subject of experiment [6] is Leishmania infantum. As to the kind of experiment: Increase in density of Leishmania infantum MHOM-TN-80-IPT1 promastigotes at 1 to 5 mM measured at 7th day by microscopic analysis.
For experiment [7], the system named is Leishmania infantum. The experiment is described as follows: Antiparasitic activity against promastigotes of Leishmania infantum MHOM-TN-80-IPT1 assessed as decrease in parasite density up to 3 mM measured at 4th and 7th day by microscopic analysis.

SMILES strings stand for the structures. Active and inactive are the calls of the source. The rule behind the calls is not given here.

Turning to `O=CCCNCCCCNCCC=O`, the inhibition entry in the experiment on Leishmania infantum [1] and with Leishmania infantum [2] was “Active” each time.
As for `NCCCC=O`, the result in the experiment on Leishmania infantum [3] and in the experiment with Leishmania infantum [6] was Active. In addition, the inhibition result with Leishmania infantum [4] and in the experiment on Leishmania infantum [5] was “Active” each time.
For `NCCCCC=O`, the outcome in the experiment on Leishmania infantum [3] and with Leishmania infantum [6] was Active. Further, the inhibition entry with Leishmania infantum [4] and with Leishmania infantum [5] was “Active” each time.
Consider `NCCCNCCCC=O`, for which, in the experiment on Leishmania infantum [7], the inhibition entry was “Active”.
